The values below come from patent publication US20240228488A1 (TAKEDA PHARMACEUTICAL COMPANY LIMITED, priority 2021, published 2024).

In one assay the target is T1, plasma kallikrein (Homo sapiens, UniProt P03952).
T1 construct: from tissue
The experiment in a line: Neat human plasma assay, FXIIa contact pathway-activated, PFR-AMC substrate. It counts as biochemical. Particulars: citrated human plasma 78% final, 10 nM human FXIIa, 100 μM PFR-AMC; read-out: Human Plasma Assay: IC90. The procedure, abridged: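 Citrated human plasma (78% final) with compound, contact-activated by 10 nM human FXIIa in pKal buffer pH 7.5, with 100 μM PFR-AMC. Fluorescence (360/480 nm) followed 5 min at room temperature; rates versus concentration fitted by 4-parameter equation for IC50/IC90.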

Assay [1] addresses human activated kallikrein enzyme (Homo sapiens, UniProt P03952). The experiment in a line: Plasma kallikrein inhibition, fluorogenic PFR-AMC substrate, 500 pM activated kallikrein format. The note with it: 500 pM activated kallikrein, 300 uM PFR-AMC, 30 min preincubation, 10 min reaction; read-out: Primary Dose Response Assay: Average EC50. It counts as biochemical. The method, boiled down:
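Enzyme (500 pM) was preincubated with inhibitor for 30 min at room temperature in 20 mM Tris pH 7.5, 1 mM EDTA, 150 mM NaCl, 0.1% PEG-400 and 0.1% Triton X-100. The reaction was started with 300 uM PFR-AMC, run 10 min, and fluorescence read at 460 nm (380 nm excitation). EC50 derived.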

Sequence of human activated kallikrein enzyme (P03952 391-638 limits assumed): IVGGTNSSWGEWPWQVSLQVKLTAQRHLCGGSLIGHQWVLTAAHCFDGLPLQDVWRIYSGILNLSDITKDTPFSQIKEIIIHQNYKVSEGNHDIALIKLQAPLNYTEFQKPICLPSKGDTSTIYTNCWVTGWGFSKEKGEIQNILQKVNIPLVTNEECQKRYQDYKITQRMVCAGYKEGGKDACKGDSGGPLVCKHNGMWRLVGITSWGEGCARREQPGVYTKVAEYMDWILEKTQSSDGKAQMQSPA
Sequence of human activated kallikrein enzyme (P03952 20-390 partner limits assumed): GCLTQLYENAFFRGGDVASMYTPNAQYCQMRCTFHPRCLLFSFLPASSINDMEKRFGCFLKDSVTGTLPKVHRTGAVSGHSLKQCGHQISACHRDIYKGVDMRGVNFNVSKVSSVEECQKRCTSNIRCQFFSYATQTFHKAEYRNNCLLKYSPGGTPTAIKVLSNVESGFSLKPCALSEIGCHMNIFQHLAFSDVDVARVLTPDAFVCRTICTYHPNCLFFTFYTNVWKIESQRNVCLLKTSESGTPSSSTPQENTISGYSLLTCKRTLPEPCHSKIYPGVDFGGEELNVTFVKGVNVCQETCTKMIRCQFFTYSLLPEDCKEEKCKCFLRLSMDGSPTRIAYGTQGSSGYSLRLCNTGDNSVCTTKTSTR
T1 sequence (P03952 391-638 limits assumed): as the sequence (P03952 391-638 limits assumed) above
T1 sequence (P03952 20-390 partner limits assumed): as the sequence (P03952 20-390 partner limits assumed) above

As to `O=C(Nc1cc(NCc2cn3cc(C4CC4)cc(N4CCOCC4)c3n2)ccn1)[C@H]1C[C@@H]1c1cccc(Cl)c1` [Example 129, (1S,2S)-2-(3-chlorophenyl)-N-(4-(((6-cyclopropyl-8-morpholinoimidazo[1,2-a]pyridin-2-yl)methyl)amino)pyridin-2-yl)cyclopropane-1-carboxamide], the IC90 at plasma kallikrein fell in the range of 1500 to 10000 nM. For the same molecule, the EC50 in assay [1] was below 1 nM.

`CN1CCN(c2cc(C3CC3)cn3cc(CNc4ccnc(NC(=O)[C@H]5C[C@@H]5c5cccc(Cl)c5)c4)nc23)CC1=O` [Example 130, (1S,2S)-2-(3-chlorophenyl)-N-(4-(((6-cyclopropyl-8-(4-methyl-3-oxopiperazin-1-yl)imidazo[1,2-a]pyridin-2-yl)methyl)amino)pyridin-2-yl)cyclopropane-1-carboxamide]: at plasma kallikrein, the IC90 lay within 400 to 1500 nM. Further, in assay [1], the EC50 is below 1 nM.

In the case of `O=C(Nc1cc(NCc2cn3cc(C4CC4)cc(N4CCNCC4)c3n2)ccn1)[C@H]1C[C@@H]1c1cccc(Cl)c1` [Example 132, (1S,2S)-2-(3-chlorophenyl)-N-(4-(((6-cyclopropyl-8-(piperazin-1-yl)imidazo[1,2-a]pyridin-2-yl)methyl)amino)pyridin-2-yl)cyclopropane-1-carboxamide], at plasma kallikrein, the IC90 lay within 400 to 1500 nM. Moreover, the EC50 in assay [1] was below 1 nM.

With `O=C(Nc1cc(NCc2cn3cc(C4CC4)cc(C4(F)CNC4)c3n2)ccn1)[C@H]1C[C@@H]1c1cccc(Cl)c1` [Example 133, (1S,2S)-2-(3-chlorophenyl)-N-(4-(((6-cyclopropyl-8-(3-fluoroazetidin-3-yl)imidazo[1,2-a]pyridin-2-yl)methyl)amino)pyridin-2-yl)cyclopropane-1-carboxamide], the IC90 at plasma kallikrein fell in the range of 400 to 1500 nM. Besides, the EC50 in assay [1] is below 1 nM.

In the case of `O=C(Nc1cc(NCc2cn3cc(C4CC4)cc(C4(O)CNC4)c3n2)ccn1)[C@H]1C[C@@H]1c1cccc(Cl)c1` [Example 134, (1S,2S)-2-(3-chlorophenyl)-N-(4-(((6-cyclopropyl-8-(3-hydroxyazetidin-3-yl)imidazo[1,2-a]pyridin-2-yl)methyl)amino)pyridin-2-yl)cyclopropane-1-carboxamide], the IC90 at plasma kallikrein was below 400 nM. Also, the EC50 in assay [1] was below 1 nM.

`O=C(Nc1cc(NCc2cn3cc(C4CC4)cc(C(O)C4CNC4)c3n2)ccn1)[C@H]1C[C@@H]1c1cccc(Cl)c1` (stereo partly drawn) [Example 135, (1S,2S)—N-(4-(((8-(-azetidin-3-yl(hydroxy)methyl)-6-cyclopropylimidazo[1,2-a]pyridin-2-yl)methyl)amino)pyridin-2-yl)-2-(3-chlorophenyl)cyclopropane-1-carboxamide]: the IC90 at plasma kallikrein is below 400 nM. Further, the EC50 in assay [1] was below 1 nM.

Take `O=C(Nc1cc(N(CCO)Cc2cn3cc(C4CC4)ccc3n2)ccn1)[C@H]1C[C@@H]1c1cc(Cl)ccn1` [Example 137, (1S,2S)-2-(4-chloropyridin-2-yl)-N-(4-(((6-cyclopropylimidazo[1,2-a]pyridin-2-yl)methyl)(2-hydroxyethyl)amino)pyridin-2-yl)cyclopropane-1-carboxamide]: the IC90 at plasma kallikrein fell in the range of 1500 to 10000 nM. Also, in assay [1], the EC50 is below 1 nM.

`CN1CCN(c2cc(C3CC3)cn3cc(CNc4ccnc(NC(=O)[C@H]5C[C@@H]5c5cccc(Cl)c5)c4)nc23)CC1` [Example 138, (1S,2S)-2-(3-chlorophenyl)-N-(4-(((6-cyclopropyl-8-(4-methylpiperazin-1-yl)imidazo[1,2-a]pyridin-2-yl)methyl)amino)pyridin-2-yl)cyclopropane-1-carboxamide]: the IC90 at plasma kallikrein is below 400 nM. In addition, the concentration giving a half-maximal response (EC50) in assay [1] is below 1 nM.

As to `CC(=O)N(C)c1cc(C2CC2)cn2cc(CNc3ccnc(NC(=O)[C@H]4C[C@@H]4c4cccc(Cl)c4)c3)nc12` [Example 139, (1S,2S)-2-(3-chlorophenyl)-N-(4-(((6-cyclopropyl-8-(N-methylacetamido)imidazo[1,2-a]pyridin-2-yl)methyl)amino)pyridin-2-yl)cyclopropane-1-carboxamide], at plasma kallikrein, the IC90 fell in the range of 400 to 1500 nM. In addition, in assay [1], the EC50 was below 1 nM.

For the molecule `CN1CC2(C1)CN(c1cc(C3CC3)cn3cc(CNc4ccnc(NC(=O)[C@H]5C[C@@H]5c5cccc(Cl)c5)c4)nc13)C2` [Example 140, (1S,2S)-2-(3-chlorophenyl)-N-(4-(((6-cyclopropyl-8-(6-methyl-2,6-diazaspiro[3.3]heptan-2-yl)imidazo[1,2-a]pyridin-2-yl)methyl)amino)pyridin-2-yl)cyclopropane-1-carboxamide], the IC90 on plasma kallikrein is 400 to 1500 nM. Besides, the EC50 in assay [1] is below 1 nM.

Regarding `CC(=O)Nc1cc(C2CC2)cn2cc(CNc3ccnc(NC(=O)[C@H]4C[C@@H]4c4cccc(Cl)c4)c3)nc12` [Example 142, (1S,2S)-N-(4-(((8-acetamido-6-cyclopropylimidazo[1,2-a]pyridin-2-yl)methyl)amino)pyridin-2-yl)-2-(3-chlorophenyl)cyclopropane-1-carboxamide], the IC90 on plasma kallikrein lay in the range of 1500 to 10000 nM. In addition, the EC50 in assay [1] is below 1 nM.

In the case of `O=C(Nc1cc(NCc2cn3cc(C4CC4)cc(N4CCCC4=O)c3n2)ncn1)[C@H]1C[C@@H]1c1cccc(Cl)c1` [Example 144, (1S,2S)-2-(3-chlorophenyl)-N-(6-(((6-cyclopropyl-8-(2-oxopyrrolidin-1-yl)imidazo[1,2-a]pyridin-2-yl)methyl)amino)pyrimidin-4-yl)cyclopropane-1-carboxamide], the IC90 on plasma kallikrein is 400 to 1500 nM. The half-maximal effective concentration (EC50) in assay [1] is below 1 nM.

Take `CC(=O)N(C)c1cc(C2CC2)cn2cc(CNc3cc(NC(=O)[C@H]4C[C@@H]4c4cccc(Cl)c4)ncn3)nc12` [Example 274, (1S,2S)-2-(3-chlorophenyl)-N-(6-(((6-cyclopropyl-8-(N-methylacetamido)imidazo[1,2-a]pyridin-2-yl)methyl)amino)pyrimidin-4-yl)cyclopropane-1-carboxamide]: on plasma kallikrein, the IC90 was in the range of 1500 to 10000 nM. The EC50 in assay [1] is 1 to 10 nM.

For the molecule `CC(=O)Nc1cc(C2CC2)cn2cc(CNc3cc(NC(=O)[C@H]4C[C@@H]4c4cccc(Cl)c4)ncn3)nc12` [Example 275, (1S,2S)—N-(6-(((8-acetamido-6-cyclopropylimidazo[1,2-a]pyridin-2-yl)methyl)amino)pyrimidin-4-yl)-2-(3-chlorophenyl)cyclopropane-1-carboxamide], on plasma kallikrein, the IC90 lay within 1500 to 10000 nM. Moreover, the 50% effective concentration (EC50) in assay [1] fell in the range of 1 to 10 nM.

Take `Cc1ccnc([C@H]2C[C@@H]2C(=O)Nc2cc(N[C@H](C)c3cn4cc(C5CC5)cc(N5CC(=O)N(C)C5=O)c4n3)nc(OCCN(C)C)n2)n1` [Example 276, (1S,2S)—N-(6-(((R)-1-(6-cyclopropyl-8-(3-methyl-2,4-dioxoimidazolidin-1-yl)imidazo[1,2-a]pyridin-2-yl)ethyl)amino)-2-(2-(dimethylamino)ethoxy)pyrimidin-4-yl)-2-(4-methylpyrimidin-2-yl)cyclopropane-1-carboxamide]: the IC90 at plasma kallikrein was below 400 nM. Further, in assay [1], the EC50 is below 1 nM.

`CC(O)c1cc(C2CC2)cn2cc(CNc3cc(NC(=O)[C@H]4C[C@@H]4c4cccc(Cl)c4)ncn3)nc12` (stereo partly drawn) [Example 281, (1S,2S)-2-(3-chlorophenyl)-N-(6-(((6-cyclopropyl-8-(1-hydroxyethyl)imidazo[1,2-a]pyridin-2-yl)methyl)amino)pyrimidin-4-yl)cyclopropane-1-carboxamide]: the IC90 on plasma kallikrein lay in the range of 10000 to 48000 nM. In assay [1], the EC50 lay in the range of 1 to 10 nM.

As to `O=C(Nc1cc(N2C[C@@H](O)C[C@@H]2c2cn3cc(C4CC4)ccc3n2)ccn1)[C@H]1C[C@@H]1c1cccc(Cl)c1` [Example 282, (1S,2S)-2-(3-chlorophenyl)-N-(4-((2R,4S)-2-(6-cyclopropylimidazo[1,2-a]pyridin-2-yl)-4-hydroxypyrrolidin-1-yl)pyridin-2-yl)cyclopropane-1-carboxamide], the IC90 on plasma kallikrein is 1500 to 10000 nM. The EC50 in assay [1] was in the range of 1 to 10 nM.

Consider `O=C(Nc1cc(N2C[C@@H](O)C[C@@H]2c2cn3cc(C4CC4)ccc3n2)ncn1)[C@H]1C[C@@H]1c1cccc(Cl)c1` [Example 283, (1S,2S)-2-(3-chlorophenyl)-N-(6-((2R,4S)-2-(6-cyclopropylimidazo[1,2-a]pyridin-2-yl)-4-hydroxypyrrolidin-1-yl)pyrimidin-4-yl)cyclopropane-1-carboxamide], for which the concentration for an effect of 90% (IC90) on plasma kallikrein was 1500 to 10000 nM. Further, in assay [1], the EC50 is 1 to 10 nM.

With `O=C(Nc1cc(NCc2cn3cc(C4CC4)cc(C4CNC4)c3n2)ccn1)[C@H]1C[C@@H]1c1cccc(Cl)c1` [Example 284, (1S,2S)—N-(4-(((8-(azetidin-3-yl)-6-cyclopropylimidazo[1,2-a]pyridin-2-yl)methyl)amino)pyridin-2-yl)-2-(3-chlorophenyl)cyclopropane-1-carboxamide], the IC90 at plasma kallikrein was below 400 nM. In addition, in assay [1], the EC50 was below 1 nM.

For `CN1CCN(c2cc(C3CC3)cn3cc(CNc4cc(NC(=O)[C@H]5C[C@@H]5c5cccc(Cl)c5)nc(O)n4)nc23)CC1` [Example 285, (1S,2S)-2-(3-chlorophenyl)-N-(6-(((6-cyclopropyl-8-(4-methylpiperazin-1-yl)imidazo[1,2-a]pyridin-2-yl)methyl)amino)-2-hydroxypyrimidin-4-yl)cyclopropane-1-carboxamide], the IC90 at plasma kallikrein is below 400 nM. The EC50 in assay [1] was below 1 nM.

`O=C(Nc1cc(NCc2cn3cc(C4CC4)cc(COCCO)c3n2)ccn1)[C@H]1C[C@@H]1c1cccc(Cl)c1` [Example 288, (1S,2S)-2-(3-chlorophenyl)-N-(4-(((6-cyclopropyl-8-((2-hydroxyethoxy)methyl)imidazo[1,2-a]pyridin-2-yl)methyl)amino)pyridin-2-yl)cyclopropane-1-carboxamide]: on plasma kallikrein, the IC90 is 1500 to 10000 nM. Also, the EC50 in assay [1] was below 1 nM.
